Consider one compound from publication PMC7946228, “Discovery of novel candidates for anti-liposarcoma therapies by medium-scale high-throughput drug screening” (PLoS ONE, 2021).

For series [1], the system named is FU-DDLS-1 liposarcoma cell line. In words: CellTiter-Glo viability, GR50, 72h. The format is cell-based, human. As to conditions: FU-DDL S-1, 72h; read-out: Half maximum effective concentration corrected for cell growth (GR50). How it is done: (§1) Cell viability was measured using the CellTiter-Glo Luminescent Cell Viability Assay (Promega, Wisconsin, United States). For each experiment the same cell numbers were seeded as for the proliferation experiments. Seven drug concentrations were used, starting from 100μM with 10-fold dilutions and also a vehicle control appropriate for each drug (DMSO or ethanol). After 72h of drug or vehicle control treatment levels of ATP were measured with CellTiter-Glo. The data from six to nine biological replicates, each with three technical replicates were collected. A nonlinear regression model with different four-parameter log-logistic function was used for modelling of the drug dose-response using ‘GRmetrics’ R package version 1.8.1 [26]. The calculated GR50 metric is equivalent to the IC50 metric but takes into account the growth rate of cells. Therefore, it estimates better the effect of the compound on cell viability and allows for comparison between different cell lines with different growth rates.
(Cellular ATP, detected with luciferase, serves as a proxy for viable cell number.)

The test system of series [2] is GOT3 liposarcoma cell line. In words: CellTiter-Glo viability, GR50, 72h. The format is cell-based, human. As to conditions: GOT3, 72h; read-out: Half maximum effective concentration corrected for cell growth (GR50). How it is done:
as §1

The subject of series [3] is LPS141 liposarcoma cell line. In words: CellTiter-Glo viability, GR50, 72h. As to conditions: LPS 141, 72h; read-out: Half maximum effective concentration corrected for cell growth (GR50). The format is cell-based, human. How it is done:
as §1

Series [4] has as its system LPS510 liposarcoma cell line. Description: CellTiter-Glo viability, GR50, 72h. The format is cell-based, human. As to conditions: LPS 510, 72h; read-out: Half maximum effective concentration corrected for cell growth (GR50). How it is done:
as §1

The test system of series [5] is LPS853 liposarcoma cell line. Description: CellTiter-Glo viability, GR50, 72h. The format is cell-based, human. As to conditions: LPS 853, 72h; read-out: Half maximum effective concentration corrected for cell growth (GR50). On the procedure: as §1
The test system of series [6] is LS2 liposarcoma cell line. In words: CellTiter-Glo viability, GR50, 72h. The format is cell-based, human. As to conditions: LS2, 72h; read-out: Half maximum effective concentration corrected for cell growth (GR50). How it is done:
as §1

The subject of series [7] is LiSa-2 liposarcoma cell line. In words: CellTiter-Glo viability, GR50, 72h. The format is cell-based, human. As to conditions: LiSa-2, 72h; read-out: Half maximum effective concentration corrected for cell growth (GR50). On the procedure:
as §1

The test system of series [8] is NRH-LS1 liposarcoma cell line. In words: CellTiter-Glo viability, GR50, 72h. The format is cell-based, human. As to conditions: NRH-LS1, 72h; read-out: Half maximum effective concentration corrected for cell growth (GR50). How it is done:
as §1

The subject of series [9] is SA-4 liposarcoma cell line. In words: CellTiter-Glo viability, GR50, 72h. The format is cell-based, human. As to conditions: SA-4, 72h; read-out: Half maximum effective concentration corrected for cell growth (GR50). How it is done:
as §1

Series [10] deals with SW872 liposarcoma cell line. Description: CellTiter-Glo viability, GR50, 72h. The format is cell-based, human. As to conditions: SW 872, 72h; read-out: Half maximum effective concentration corrected for cell growth (GR50). How it is done: as §1
For series [11], the system named is T1000 liposarcoma cell line. Description: CellTiter-Glo viability, GR50, 72h. The format is cell-based, human. As to conditions: T1000, 72h; read-out: Half maximum effective concentration corrected for cell growth (GR50). How it is done:
as §1

The subject of series [12] is T449 liposarcoma cell line. In words: CellTiter-Glo viability, GR50, 72h. The format is cell-based, human. As to conditions: T449, 72h; read-out: Half maximum effective concentration corrected for cell growth (GR50). On the procedure:
as §1

The subject of series [13] is T778 liposarcoma cell line. In words: CellTiter-Glo viability, GR50, 72h. The format is cell-based, human. As to conditions: T778, 72h; read-out: Half maximum effective concentration corrected for cell growth (GR50). On the procedure:
as §1

Series [14] concerns liposarcoma cell lines. In words: IncuCyte cell proliferation assay (growth reducing/arresting concentration). The format is cell-based, human. As to conditions: complete growth arrest between 96 and 120h. On the procedure:
The cellular proliferation rate was measured using the IncuCyte ZOOM live-cell imaging system (Essen Bioscience, Birmingham, UK) with the corresponding software application (version 2013BRev1). First the growth rate for each cell line was established to estimate the seeding numbers of cells corresponding to 15-30% of confluence at the start of the experiment and maximum 70% after 72h. The drug treatment was initiated approximately 18h after seeding. The proliferation rate was measured as cell confluence over time through the acquisition of photographs under phase contrast every third hour for the entire duration of the drug treatment. During the drug treatment, media were not changed, and cells were not split. The growth reducing drug concentration was defined as lowest drug concentration leading to significant decrease of cellular growth between 40 and 72h after start of treatment. To determine that concentration, plots were generated using IncuCyte software and differences in growth between 40 and 72h were calculated using least-square means with the '[…] package version 1.4.3 [25]. Growth arresting concentrations were defined as minimal drug concentration under which cell confluence between 96 and 120h increases by less than 3%. Though growth arrest occurred much earlier, these time points ensured that the growth arrest is a stable phenomenon. These growth arresting concentrations were used for drug withdrawal, apoptosis and cell cycle experiments. All the data were verified with the plots. The presented values correspond to median values from two ([…], all compounds) to five (all cell lines, triptolide) biological replicates.

In series [15] the test system is liposarcoma cell lines. In words: TUNEL apoptosis assay by flow cytometry. As to conditions: growth arresting concentration, 17-72h, majority of cell lines. The format is cell-based, human. On the procedure: (§2) Cells were treated with drugs at the concentrations corresponding to previously established growth arresting concentrations and collected between 17 and 72h. Time of collection was individual for every drug/cell line combination; cells were collected after the beginning of complete growth inhibition (based on the growth curves data) but only when first signs of morphological change or cell death were visible (estimated microscopically approximately every 2h). After methanol fixation, cells were barcoded with different combinations of Pacific Blue/Pacific Orange dyes (Thermo Fisher Scientific) for different drug treatments. After mixing, cells were incubated in the TUNEL reaction mix for 1h at 37°C, according to the manufacturer’s instructions (Roche, Germany), stained with Streptavidin-Cy5 conjugated Ab and digested with RNAse. Cells were counter-stained with propidium iodide and analyzed using LSR II Flow Cytometer (BD Biosciences, NJ, USA. The data were processed with FlowJo Version 7.6.5 (Tree Star, Ashland, USA). The gating strategy is presented in Fig 3A. Cy-5 positive cells (as compared to control sample) were calculated as apoptotic. Cell cycles of non-apoptotic cells were analyzed using the built in FlowJo Cell Cycle Analysis module. Three independent biological replicates were done for each cell line/drug combination with exception of FU-DDLS-1 and T1000 –for which we only had two replicates available.
(In general: Flow cytometry measures light scatter and fluorescence of single cells or particles in a stream.)

For series [16], the system named is liposarcoma cell lines. Description: Cell cycle analysis of non-apoptotic cells (propidium iodide). The format is cell-based, human. As to conditions: growth arresting concentration, non-apoptotic fraction. How it is done:
as §2

Series [17] deals with liposarcoma cell lines. In words: Drug withdrawal, reversibility of growth arrest. The format is cell-based, human. As to conditions: 120h treatment at growth arresting concentration, then 72h without drug; except T778 with MLN9708. On the procedure:
The cellular proliferation rate was measured using the IncuCyte ZOOM live-cell imaging system (Essen Bioscience, Birmingham, UK) with the corresponding software application (version 2013BRev1). First the growth rate for each cell line was established to estimate the seeding numbers of cells corresponding to 15–30% of confluence at the start of the experiment and maximum 70% after 72h. The drug treatment was initiated approximately 18h after seeding. The proliferation rate was measured as cell confluence over time through the acquisition of photographs under phase contrast every third hour for the entire duration of the drug treatment. During the drug treatment, media were not changed, and cells were not split. The growth reducing drug concentration was defined as lowest drug concentration leading to significant decrease of cellular growth between 40 and 72h after start of treatment. To determine that concentration, plots were generated using IncuCyte software and differences in growth between 40 and 72h were calculated using least-square means with the ‘emmeans’ R package version 1.4.3 [25]. Growth arresting concentrations were defined as minimal drug concentration under which cell confluence between 96 and 120h increases by less than 3%. Though growth arrest occurred much earlier, these time points ensured that the growth arrest is a stable phenomenon. These growth arresting concentrations were used for drug withdrawal, apoptosis and cell cycle experiments. All the data were verified with the plots. The presented values correspond to median values from two (T449, all compounds) to five (all cell lines, triptolide) biological replicates.
An important prerequisite for clinical implementation of these compounds as treatment for liposarcoma is irreversibility of the induced growth inhibition. We thus assessed if the drugs were only transiently cytostatic, which is especially important in case of the compounds that seem to work mainly via cell cycle arrest (APO866, GSK2126458). Cells were treated with the compounds at growth arresting concentrations for 120h after which the compounds were removed and cell numbers were monitored for another 72h. […] To irreversibly arrest cell proliferation GSK2126458 had to be used at 10x higher concentrations (100x for GOT3) (S5 Fig). Those concentrations are above physiological ranges (see Table 2), and these effects should be accounted for assessing use of GSK2126458 in clinic.

The conditions of series [18]: cited from earlier work.
Where [19] appears, read: intravenous, phase I, maximum tolerated dose.

Where two headings read alike, the source gives them in different places. Where only a bound is given, the exact number is not on record here.

Usually Cmax stands for the peak of the concentration-time curve. `CC(C)C[C@H](NC(=O)CNC(=O)c1cc(Cl)ccc1Cl)B1OC(=O)C(CC(=O)O)(CC(=O)O)O1` [MLN9708]: the IC50 stood at 635 nM in series [1]; 99 nM in [2]; 522 nM in series [3]; 841 nM in series [4]; 95 nM in series [5]; 629 nM in series [6]. For the same compound, the IC50 in series [7] worked out at 745 nM; in series [8], 743 nM; in [9], 325 nM; in series [10] it was 553 nM; in [11] it was 463 nM; in series [12], 1030 nM. Also, the IC50 in [13] amounted to 774 nM. Further, in the series on liposarcoma cell lines [14], the “concentration required to completely arrest more than half of the cell lines” value was “at least 1 μM”. The “apoptosis (increase in % of apoptotic cells)” value with liposarcoma cell lines [15] is on record as “above 5%”. Further, the “cell cycle phase in which cells are blocked” value in the series with liposarcoma cell lines [16] was “less specific arrest”. Further, in the series on liposarcoma cell lines [17], the “reversibility of growth inhibition after drug removal” value is “irreversibly inhibited growth of all tested cell lines”. The highest concentration (Cmax) in series [18] (human, in vivo) is 30 to 300 nM; in [18] (setting [19]), at most 1400 nM. Moreover, in series [18] (setting [19]), the Css was 30 to 300 nM.
